# Experimental data as given in US9604974B2, “Compounds as modulator of JAK-STAT pathway, methods and applications thereof” (UNIVERSITY OF MYSORE, priority 2015, dated 2017).
# Entries after “also recorded” stand apart in the source; their conditions may differ.
# How the values were obtained:
# phospho-STAT3 (Y705) = test: Western blot of constitutive phospho-STAT3 (Y705) in HepG2; type: cell-based, human
# Procedure: FIG. 2 depicts the suppression of phospho-STAT3 by compound 1 (CIMO) in a dose dependent manner [A]. HepG2 cells (5×10^5/mL) are treated with the indicated concentrations of CIMO for 6 hours, after which whole-cell extracts are prepared and resolved on SDS-PAGE gel, electrotransferred onto nitrocellulose membrane, and probed for phospho-STAT3. The same blot is stripped and reprobed with STAT3 antibody to verify equal protein loading. […] HepG2 cells (5×10^5/mL) are treated with the indicated concentrations of AG490 for about 6 hours, after which Western Blotting is done as described for [A]. [C] depicts the suppression of phospho-STAT3 levels by Compound 1 (CIMO) in a time-dependent manner. HepG2 cells (5×10^5/mL) are treated with 10 μMol/L CIMO for the indicated times, after which Western blotting is done as described for [A]. [D] depicts that compound 1 (CIMO) has no effect on phospho-STAT3 (Ser-727) and STAT3 protein expression. HepG2 cells (5×10^5/mL) are treated with 10 μMol/L CIMO for the indicated times, after which Western Blotting is done as described for [A] and membrane is probed using antibodies against phospho-STAT3 (Ser-727) and STAT3. […] HepG2 cells (1×10^5/mL) are incubated with or without 10 μMol/L CIMO for about 6 hours and then analyzed for the intracellular distribution of STAT3 by immunocytochemistry. The same slides are counterstained for nuclei with Hoechst (50 ng/mL) for about 5 minutes and analyzed under an fluorescencemicroscope. […] HepG2 cells (5×10^5/mL) are treated with 10 μMol/L CIMO, after which whole-cell extracts are prepared, resolved in SDS-PAGE, electrotransferred onto nitrocellulose membrane, and probed with phospho-Src, phospho-JAK1 and phospho-JAK2 antibodies. The same blots are stripped and reprobed with Src, JAK1 and JAK2 antibodies to verify equal protein loading. [G] depicts the suppression of STAT3 DNA binding ability by Compound 1 (CIMO) in HepG2 cells. HepG2 cells are treated with 10 μMol/L CIMO for the indicated time, nuclear extracts are prepared, and 5 μg of the nuclear extract protein is used for ELISA-based DNA-binding assay.
# CIMO is tested towards the inhibition of constitutive activation of STAT3 in HepG2 cells by Western Blotting via antibodies recognising phospho-STAT3 (Y705). For detection of phospho-proteins, CIMO treated whole-cell extracts are lysed in lysis buffer [20 mM Tris (pH 7.4), 250 mM NaCl, 2 mM Ethylenediaminetetraacetic acid (pH 8.0), 0.1% Triton-X-100, 0.01 mg/ml aprotinin, 0.005 mg/ml leupeptin, 0.4 mM phenylmethanesulfonylfluoride, and 4 mM NaVO4). Lysates are then spun at 14,000 rpm for about 10 minutes to remove insoluble material and resolved on SDS gel. After electrophoresis, the proteins are electrotransferred to a nitrocellulose membrane, blocked with 5% non-fat milk, and probed with various antibodies (1:1000) overnight at about 4° C. The blot is washed, exposed to HRP-conjugated secondary antibodies for about 1 hour, and finally examined by chemiluminescence (ECL; GE Healthcare, Little Chalfont, Buckinghamshire, UK).
# c-Src = test: Western blot of constitutive phospho-Src in HepG2; type: cell-based, human; details: HepG2, 10 μMol/L CIMO
# STAT3 = STAT3 DNA binding TransAM ELISA on nuclear extracts; type: cell-based, human; details: HepG2 nuclear extracts, 10 μMol/L CIMO
# Procedure: It is further investigated whether CIMO modulates STAT3 DNA binding activity in HepG2 cells, since it is known that STAT3 dimer translocates into the nucleus and binds to specific DNA nucleotide sequence to regulate gene expression. DNA binding assay is performed using a STAT3 DNA binding TransAM™ ELISA kit (Active Motif, Carlsbad, Calif., USA). Briefly, nuclear extracts (5 μg) from CIMO-treated cells are incubated in a 96-well plate coated with oligonucleotide containing the STAT3-specific DNA probe. Bound STAT3 is then detected by a specific primary antibody. An HRP-conjugated secondary antibody is subsequently applied to detect the bound primary antibody and provided the basis for colorimetric quantification. The enzymatic product is measured at 450 nm with a microplate reader (Tecan Systems, San Jose, Calif., USA). Specificity of this assay is tested by the addition of wild-type or mutated STAT3 consensus oligonucleotide in the competitive or mutated competitive control wells before the addition of the nuclear extracts.
# JAK2 = test: IL-6 induced JAK2 phosphorylation in Hep3B; type: cell-based; details: 10 μMol/L CIMO, IL-6 10 ng/mL
# Procedure: FIG. 3 depicts comparative study of cell viability between STAT3-siRNA transfected and Compound 1 (CIMO) treated HepG2 cells [A]. Correspondingly, Western Blot analysis is used to assess the levels of phospho-STAT3 and STAT3 in HepG2 cells with siRNA-mediated depletion STAT3 expression and on exposure to 4 μM CIMO. Whole cell extract is prepared and resolved on SDS-PAGE gel, electrotransferred onto nitrocellulose membrane, and probed for phospho-STAT3 and the same blot is stripped and reprobed with STAT3 antibody and Beta actin to verify equal protein loading. [B] showcases the modulation of STAT3 mediated transcription, α2-M promoter activity by Compound 1 (CIMO) in HepG2 cells. [C] depicts the inhibition of IL-6-induced phosphorylation of STAT3, JAK1 and JAK2 by Compound 1 (CIMO). Hep3B cells (5×10^5/mL) are treated with 10 μMol/L CIMO for the indicated times and then stimulated with IL-6 (10 ng/mL) for about 15 minutes. Whole-cell extracts are then prepared, resolved on SDS-PAGE gel, electrotransferred onto nitrocellulose membrane and probed with phospho-STAT3, phospho-JAK1 and phospho-JAK2 antibodies. The same blot is stripped and reprobed with STAT3, JAK1 and JAK2 antibody to verify equal protein loading. [D] and [E], showcases the suppression of STAT3 regulated gene products involved in cell proliferation and survival by Compound 1 (CIMO). […]
structure (smiles),measurement,setting,value
COc1ccc(C2CNC(c3cn(Cc4ccc(-c5ccccc5C#N)cc4)c4ccccc34)OC23CCCCC3)cc1 (stereo not shown) [Compound 1],time of maximum inhibition of phospho-STAT3,phospho-STAT3 (Y705); HepG2,6 h
same,phospho-STAT3 levels versus DMSO control,"phospho-STAT3 (Y705); HepG2, 4 μM CIMO",decreased phospho-STAT3 levels
same,protein levels of total STAT3 versus DMSO control,"phospho-STAT3 (Y705); HepG2, 4 μM CIMO",not significantly altered
same,concentration of maximum inhibition of phospho-STAT3,"phospho-STAT3 (Y705); HepG2, 6 hours",20 µM
same,concentration for comparable phospho-STAT3 effect versus AG490,"phospho-STAT3 (Y705); HepG2, CIMO compared to AG490",ten-fold lower concentration
same,levels of phospho-STAT3 (Y705),"phospho-STAT3 (Y705); HepG2, Western blot, dose and time course, listed as CIMO",substantially downregulated in a dose- and time-dependent manner; also recorded: completely inhibits
same,STAT3 protein expression,"phospho-STAT3 (Y705); HepG2, same blots reprobed",remains unchanged
same,phosphorylation of c-Src kinases,c-Src,significant inhibition
same,binding of STAT3 to the DNA,STAT3,suppresses the binding of STAT3 to the DNA in a time-dependent manner
same,IL-6 induced phosphorylation of JAK2,JAK2,substantially down-regulates
